The record followed here is patent publication US7741327B2 (Hoffmann-La Roche Inc., priority 2008, dated 2010).

This assay concerns the target T1, Recombinant human liver GK1 (GST-GK) (Homo sapiens, UniProt P35557).
T1 construct: made in house; host or cells: E. coli
T1 sequence (P35557 1-466 isoform P35557-2): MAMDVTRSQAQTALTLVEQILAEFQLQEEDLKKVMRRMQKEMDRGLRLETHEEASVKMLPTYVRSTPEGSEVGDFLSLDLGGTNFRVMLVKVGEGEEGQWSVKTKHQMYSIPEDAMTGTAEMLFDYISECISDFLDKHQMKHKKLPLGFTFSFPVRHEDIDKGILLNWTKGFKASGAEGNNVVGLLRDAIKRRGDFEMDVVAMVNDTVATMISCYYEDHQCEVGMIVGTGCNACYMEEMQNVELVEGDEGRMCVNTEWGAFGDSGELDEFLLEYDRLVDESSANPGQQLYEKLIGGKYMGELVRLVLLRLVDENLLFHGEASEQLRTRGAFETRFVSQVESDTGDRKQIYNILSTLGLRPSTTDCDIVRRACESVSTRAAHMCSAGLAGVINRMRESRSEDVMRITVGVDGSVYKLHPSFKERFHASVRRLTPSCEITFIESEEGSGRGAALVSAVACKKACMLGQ
Description: In vitro glucokinase activity (G6PDH-coupled NADH assay). It is filed as biochemical. The settings on record: 30° C., 5 mM D-glucose, 10% DMSO. An outline of the steps: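 Activation measured as the rate of OD340 rise from G6PDH-coupled NADH production, relative to 10% DMSO control, reported as SC1.5 (concentration for 50% activity increase). Conditions: 30° C, pH 7.1 Hepes, 5 mM glucose, 1 mM ATP, purified recombinant GST-human GK1, compound preincubated 10 min before enzyme addition.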

As for `Cc1ccccc1OC1=CC(=O)N([C@@H](CC(C)C)C(=O)Nc2ccn(C)n2)C1` [Example 120, (S)-4-Methyl-2-(2-oxo-4-o-tolyloxy-2,5-dihydro-pyrrol-1-yl)-pentanoic acid (1-methyl-1H-pyrazol-3-yl)-amide], the “SC1.5 (concentration of activator that produced a 50% increase in the activity of GK)” value came out at 0.72 µM.

With `Cc1ccccc1OC1=CC(=O)N([C@@H](CC(C)C)C(=O)Nc2ccn(CCO[Si](C)(C)C(C)(C)C)n2)C1` [Example 121, (S)-4-Methyl-2-(2-oxo-4-o-tolyloxy-2,5-dihydro-pyrrol-1-yl)-pentanoic acid {1-[2-(t-butyl-dimethyl-silanyloxy)-ethyl]-1H-pyrazol-3-yl}-amide], the “SC1.5 (concentration of activator that produced a 50% increase in the activity of GK)” value is 0.746 µM.

As for `Cc1ccccc1OC1=CC(=O)N([C@@H](CC(C)C)C(=O)Nc2ccn(CCO)n2)C1` [Example 122, (S)-4-Methyl-2-(2-oxo-4-o-tolyloxy-2,5-dihydro-pyrrol-1-yl)-pentanoic acid [1-(2-hydroxy-ethyl)-1H-pyrazol-3-yl]-amide], the “SC1.5 (concentration of activator that produced a 50% increase in the activity of GK)” value was found to be 0.56 µM.

As to `Cc1ccccc1OC1=CC(=O)N([C@@H](CC(C)C)C(=O)Nc2ccn(C[C@@H]3COC(C)(C)O3)n2)C1` [Example 123, (S)-4-Methyl-2-(2-oxo-4-o-tolyloxy-2,5-dihydro-pyrrol-1-yl)-pentanoic acid [1-((R)-2,2-dimethyl-[1,3]dioxolan-4-yl-methyl)-1H-pyrazol-3-yl]-amide], the “SC1.5 (concentration of activator that produced a 50% increase in the activity of GK)” value was 1.294 µM.

On to `Cc1ccccc1OC1=CC(=O)N([C@@H](CC(C)C)C(=O)Nc2ccn(C[C@@H](O)CO)n2)C1` [Example 124, (S)-4-Methyl-2-(2-oxo-4-o-tolyloxy-2,5-dihydro-pyrrol-1-yl)-pentanoic acid [1-((R)-2,3-dihydroxy-propyl)-1H-pyrazol-3-yl]-amide], for which the “SC1.5 (concentration of activator that produced a 50% increase in the activity of GK)” value stood at 0.336 µM.

`Cc1ccccc1OC1=CC(=O)N([C@@H](CC(C)C)C(=O)Nc2ccn(CC(C)(C)O)n2)C1` [Example 125, (S)-4-Methyl-2-(2-oxo-4-o-tolyloxy-2,5-dihydro-pyrrol-1-yl)-pentanoic acid [1-(2-hydroxy-2-methyl-propyl)-1H-pyrazol-3-yl]-amide]: the “SC1.5 (concentration of activator that produced a 50% increase in the activity of GK)” value stood at 0.252 µM.

With `CC(C)C[C@@H](C(=O)Nc1ccn(CC(C)(C)O)n1)N1CC(Oc2cccc(O)c2F)=CC1=O` [Example 126, (S)-2-[4-(2-Fluoro-3-hydroxy-phenoxy)-2-oxo-2,5-dihydro-pyrrol-1-yl]-4-methyl-pentanoic acid [1-(2-hydroxy-2-methyl-propyl)-1H-pyrazol-3-yl]-amide], the “SC1.5 (concentration of activator that produced a 50% increase in the activity of GK)” value is 0.182 µM.

On to `CC(C)C[C@@H](C(=O)Nc1ccn(C)n1)N1CC(Oc2cccc(O)c2F)=CC1=O` [Example 127, (S)-2-[4-(2-Fluoro-3-hydroxy-phenoxy)-2-oxo-2,5-dihydro-pyrrol-1-yl]-4-methyl-pentanoic acid (1-methyl-1H-pyrazol-3-yl)-amide], for which the “SC1.5 (concentration of activator that produced a 50% increase in the activity of GK)” value was 0.414 µM.

Regarding `CC(C)C[C@@H](C(=O)Nc1ccn(C[C@@H]2COC(C)(C)O2)n1)N1CC(Oc2cccc(Br)c2F)=CC1=O` [Example 128, (S)-2-[4-(3-Bromo-2-fluoro-phenoxy)-2-oxo-2,5-dihydro-pyrrol-1-yl]-4-methyl-pentanoic acid [1-((R)-2,2-dimethyl-[1,3]dioxolan-4-yl-methyl)-1H-pyrazol-3-yl]-amide], the “SC1.5 (concentration of activator that produced a 50% increase in the activity of GK)” value is 0.351 µM.

Take `CC(C)C[C@@H](C(=O)Nc1ccn(C[C@@H](O)CO)n1)N1CC(Oc2cccc(Br)c2F)=CC1=O` [Example 129, (S)-2-[4-(3-Bromo-2-fluoro-phenoxy)-2-oxo-2,5-dihydro-pyrrol-1-yl]-4-methyl-pentanoic acid [1-((R)-2,3-dihydroxy-propyl)-1H-pyrazol-3-yl]-amide]: the “SC1.5 (concentration of activator that produced a 50% increase in the activity of GK)” value is 0.163 µM.

Take `Cc1cccc(OC2=CC(=O)N([C@@H](CC(C)C)C(=O)Nc3ccn(C[C@@H]4COC(C)(C)O4)n3)C2)c1F` [Example 130, (S)-2-[4-(2-Fluoro-3-methyl-phenoxy)-2-oxo-2,5-dihydro-pyrrol-1-yl]-4-methyl-pentanoic acid [1-((R)-2,2-dimethyl-[1,3]dioxolan-4-yl-methyl)-1H-pyrazol-3-yl]-amide]: the “SC1.5 (concentration of activator that produced a 50% increase in the activity of GK)” value was 0.26 µM.

Take `Cc1cccc(OC2=CC(=O)N([C@@H](CC(C)C)C(=O)Nc3ccn(C[C@@H](O)CO)n3)C2)c1F` [Example 131, (S)-2-[4-(2-Fluoro-3-methyl-phenoxy)-2-oxo-2,5-dihydro-pyrrol-1-yl]-4-methyl-pentanoic acid [1-((R)-2,3-dihydroxy-propyl)-1H-pyrazol-3-yl]-amide]: the “SC1.5 (concentration of activator that produced a 50% increase in the activity of GK)” value amounted to 0.117 µM.

`Cc1cccc(OC2=CC(=O)N([C@@H](CC(C)C)C(=O)Nc3ccn(CCO[Si](C)(C)C(C)(C)C)n3)C2)c1F` [Example 132, (S)-2-[4-(2-Fluoro-3-methyl-phenoxy)-2-oxo-2,5-dihydro-pyrrol-1-yl]-4-methyl-pentanoic acid {1-[2-(t-butyl-dimethyl-silanyloxy)-ethyl]-1H-pyrazol-3-yl}-amide]: the “SC1.5 (concentration of activator that produced a 50% increase in the activity of GK)” value was found to be 0.577 µM.

Consider `Cc1cccc(OC2=CC(=O)N([C@@H](CC(C)C)C(=O)Nc3ccn(CCO)n3)C2)c1F` [Example 133, (S)-2-[4-(2-Fluoro-3-methyl-phenoxy)-2-oxo-2,5-dihydro-pyrrol-1-yl]-4-methyl-pentanoic acid [1-(2-hydroxy-ethyl)-1H-pyrazol-3-yl]-amide], for which the “SC1.5 (concentration of activator that produced a 50% increase in the activity of GK)” value worked out at 0.249 µM.

In the case of `CC(C)C[C@@H](C(=O)Nc1ccn(C[C@@H](O)CO)n1)N1CC(Oc2c(F)ccc(OC(C)C)c2F)=CC1=O` [Example 134, (S)-2-[4-(2,6-Difluoro-3-isopropoxy-phenoxy)-2-oxo-2,5-dihydro-pyrrol-1-yl]-4-methyl-pentanoic acid [1-((R)-2,3-dihydroxy-propyl)-1H-pyrazol-3-yl]-amide], the “SC1.5 (concentration of activator that produced a 50% increase in the activity of GK)” value came out at 0.069 µM.

Regarding `CC(C)C[C@@H](C(=O)Nc1ccn(CC(C)(C)O)n1)N1CC(Oc2c(F)ccc(OC(C)C)c2F)=CC1=O` [Example 135, (S)-2-[4-(2,6-Difluoro-3-isopropoxy-phenoxy)-2-oxo-2,5-dihydro-pyrrol-1-yl]-4-methyl-pentanoic acid [1-(2-hydroxy-2-methyl-propyl)-1H-pyrazol-3-yl]-amide], the “SC1.5 (concentration of activator that produced a 50% increase in the activity of GK)” value worked out at 0.066 µM.

`CC(C)C[C@@H](C(=O)Nc1ccn(C[C@@H]2COC(C)(C)O2)n1)N1CC(Oc2ccccc2Br)=CC1=O` [Example 136, (S)-2-[4-(2-Bromo-phenoxy)-2-oxo-2,5-dihydro-pyrrol-1-yl]-4-methyl-pentanoic acid [1-((R)-2,2-dimethyl-[1,3]dioxolan-4-yl-methyl)-1H-pyrazol-3-yl]-amide]: the “SC1.5 (concentration of activator that produced a 50% increase in the activity of GK)” value came out at 2.013 µM.

Turning to `CC(C)C[C@@H](C(=O)Nc1ccn(C[C@@H](O)CO)n1)N1CC(Oc2ccccc2Br)=CC1=O` [Example 137, (S)-2-[4-(2-Bromo-phenoxy)-2-oxo-2,5-dihydro-pyrrol-1-yl]-4-methyl-pentanoic acid [1-((R)-2,3-dihydroxy-propyl)-1H-pyrazol-3-yl]-amide], the “SC1.5 (concentration of activator that produced a 50% increase in the activity of GK)” value was 0.26 µM.

In the case of `CC(C)C[C@@H](C(=O)Nc1ccn(CC(C)(C)O)n1)N1CC(Oc2cccc(C#N)c2)=CC1=O` [Example 138, (S)-2-[4-(3-Cyano-phenoxy)-2-oxo-2,5-dihydro-pyrrol-1-yl]-4-methyl-pentanoic acid [1-(2-hydroxy-2-methyl-propyl)-1H-pyrazol-3-yl]-amide], the “SC1.5 (concentration of activator that produced a 50% increase in the activity of GK)” value was determined as 3.733 µM.

`CC(C)C[C@@H](C(=O)Nc1ccn(C[C@@H]2COC(C)(C)O2)n1)N1CC(Oc2cccc(N(C)C)c2F)=CC1=O` [Example 139, (S)-2-[4-(3-Dimethylamino-2-fluoro-phenoxy)-2-oxo-2,5-dihydro-pyrrol-1-yl]-4-methyl-pentanoic acid [1-((R)-2,2-dimethyl-[1,3]dioxolan-4-yl-methyl)-1H-pyrazol-3-yl]-amide]: the “SC1.5 (concentration of activator that produced a 50% increase in the activity of GK)” value turned out to be 0.796 µM.

With `CC(C)C[C@@H](C(=O)Nc1ccn(C[C@@H](O)CO)n1)N1CC(Oc2cccc(N(C)C)c2F)=CC1=O.Cl` [Example 140, (S)-2-[4-(3-Dimethylamino-2-fluoro-phenoxy)-2-oxo-2,5-dihydro-pyrrol-1-yl]-4-methyl-pentanoic acid [1-((R)-2,3-dihydroxy-propyl)-1H-pyrazol-3-yl]-amide hydrochloride], the “SC1.5 (concentration of activator that produced a 50% increase in the activity of GK)” value was found to be 0.37 µM.

With `CC(C)C[C@@H](C(=O)Nc1ccn(C[C@@H]2COC(C)(C)O2)n1)N1CC(Oc2cccc(N3CCCC3)c2F)=CC1=O` [Example 141, (S)-2-[4-(2-Fluoro-3-pyrrolidin-1-yl-phenoxy)-2-oxo-2,5-dihydro-pyrrol-1-yl]-4-methyl-pentanoic acid [1-((R)-2,2-dimethyl-[1,3]dioxolan-4-yl-methyl)-1H-pyrazol-3-yl]-amide], the “SC1.5 (concentration of activator that produced a 50% increase in the activity of GK)” value was found to be 0.516 µM.
